According to US6083941A, “Inhibition of NMDA receptor activity by pregnenolone sulfate derivatives” (Trustees of Boston University, priority 1998, dated 2000):
Values joined by “and” are separate entries in the source; they are usually repeats but may differ in a detail not shown here. Identical values can stand only once. Counter-ions that a name gives are not always drawn.

Legend:
Type in all cases: cell-based
[1] = tested on: NMDA receptor; experiment: Electrophysiology, NMDA response in rat hippocampal neurons; details: FIG. 4; average of 6 experiments
Protocol: Experiments were carried out in 35-mm tissue culture dishes on the stage of an inverted phase contrast microscope. Whole cell currents were recorded by the whole cell variant of the patch clamp technique (Hamill, O. P., et al., Pfagers Arch. 891:85-100 (1981)). Patch electrodes had tip openings of about […] and resistances of 3-8 M.OMEGA. using an intracellular solution comprised of the following (in mM): 140 CsCl, 11 EGTA, and 10 HEPES (pH adjusted to 7.2 with CsOH). In experiments in which a high concentration of glycine was used, the intracellular solution was replaced with a low chloride (10 mM) pipette solution. This solution contained the following (in mM): 140 potassium gluconate, 10 KCl, 8 sodium gluconate, 11 EGTA, and 10 HEPES (pH adjusted to 7.2 with KOH). […]
The degree of modulation of the amino acid response by steroid, the percentage change, is expressed as [(I'/I)-1]×100%, where I is the average of control responses obtained from the same cell before application and after washout of steroid and I' is the agonist-induced current in the presence of steroid. Throughout, results are expressed as mean±S.E.; statistical comparison of groups was carried out using Student's t test.
The electrophysiology of additional pregnenolone derivatives were analyzed as described in Example 1. […]

[2] = tested on: kainate receptors; experiment: Whole cell patch clamp, kainate-induced current in cultured chick spinal cord neurons; details: 100 μM steroid; -70 mV; sulfate
Protocol: (§1) Cultures of dissociated spinal cord neurons were prepared as previously described (Farb, D. H., et al., J. Cell Biol., 80:651-661 (1979)). Briefly, the dissociated cells from 7-day chick embryos were plated on collagen-coated 35-mm tissue culture dishes in Eagle's minimum essential medium supplemented with 2.4 mM glutamine, 10% (v/v) heat-inactivated horse serum, 5% (v/v) chick embryo extract and antibiotics. Cultures were maintained in a humidified atmosphere of 5% CO2, 95% air at 37°. Cytarabine (1 μM) was added to the culture medium after 36 hr. of the initial plating to inhibit the proliferation of non-neuronal cells. One day later, this medium was replaced with a similar medium supplemented with 20.5 mM glucose, 19 mM KCl, and 2.5% chick embryo extract. Fresh medium was added twice weekly. Cultured neurons were used in experiments within 2-4 weeks after plating.
(§2) Experiments were carried out in 35-mm tissue culture dishes on the stage of an inverted phase contrast microscope. Whole cell currents were recorded by the whole cell variant of the patch clamp technique (Hamill, O. P., et al., Pfagers Arch. 891:85-100 (1981)). Patch electrodes had tip openings of about […] and resistances of 3-8 M.OMEGA. using an intracellular solution comprised of the following (in mM): 140 CsCl, 11 EGTA, and 10 HEPES (pH adjusted to 7.2 with CsOH). […]

[3] = tested on: AMPA receptors; experiment: Whole cell patch clamp, AMPA-induced current in cultured chick spinal cord neurons; details: 100 μM steroid; -70 mV; sulfate
Protocol: as §1, §2

SMILES | % inhibition of NMDA response in rat hippocampal cells [1] | inhibition of the 50 μM kainate-induced current [2] | inhibition of the 25 μM AMPA-induced current [3]
CC(=O)[C@H]1CC[C@H]2[C@@H]3CC[C@@H]4C[C@H](OC(=O)CCC(=O)O)CC[C@]4(C)[C@H]3CC[C@]12C [5β3αHS, 3α-hydroxy-5β-pregnan-20-one hemisuccinate] | approximately 20% |  | 
CC(=O)[C@H]1CC[C@H]2[C@@H]3CC[C@@H]4C[C@H](OS(=O)(=O)O)CC[C@]4(C)[C@H]3CC[C@]12C [5β3αS, 3α-hydroxy-5β-pregnan-20-one sulfate] |  | 37% and 37.4±4.7% | 29% and 29.0±3.1%
